# Reference: ChEMBL document CHEMBL3593235, “Discovery of xanthine oxidase inhibitors and/or α-glucosidase inhibitors by carboxyalkyl derivatization based on the flavonoid of apigenin” (Bioorg Med Chem Lett, 2015)
# The source made the active and inactive calls. The calls are words filed in the database; no cut-off is given here.
# Legend:
# [1] = target: Xanthine dehydrogenase/oxidase (Homo sapiens, UniProt P47989); test: Inhibition of xanthine oxidase (unknown origin) using xanthine as substrate preincubated for 15 mins followed by substrate addition measured after 30 mins by spectrophotometric analysis
# [2] = Inhibition of alpha glucosidase (unknown origin) using para-nitrophenyl-alpha-D-glucopyranoside as substrate preincubated for 15 mins followed by substrate addition measured after 10 mins by spectrophotometric analysis; parameters: species or system Homo sapiens
# [3] = test system: Mus musculus; test: Hypoglycemic activity in ICR mouse assessed as decrease in elevated postprandial blood glucose level at 20 mg/kg, po administered 30 mins prior to sucrose challenge measured after 30 mins by OSTT; type: functional, organism-based
# [4] = test system: Mus musculus; test: Hypoglycemic activity in ICR mouse assessed as decrease in elevated postprandial blood glucose level at 20 mg/kg, po administered 30 mins prior to glucose challenge measured after 30 mins by OGTT; type: functional, organism-based
# [5] = test system: Mus musculus; test: Hypouricemic activity in ICR mouse assessed as decrease in potassium oxonate-induced serum uric acid level at 10 mg/kg, ip after 1 hr by Uricase colorimetric method; type: functional, organism-based
# Sequence of Xanthine dehydrogenase/oxidase (P47989 whole entry): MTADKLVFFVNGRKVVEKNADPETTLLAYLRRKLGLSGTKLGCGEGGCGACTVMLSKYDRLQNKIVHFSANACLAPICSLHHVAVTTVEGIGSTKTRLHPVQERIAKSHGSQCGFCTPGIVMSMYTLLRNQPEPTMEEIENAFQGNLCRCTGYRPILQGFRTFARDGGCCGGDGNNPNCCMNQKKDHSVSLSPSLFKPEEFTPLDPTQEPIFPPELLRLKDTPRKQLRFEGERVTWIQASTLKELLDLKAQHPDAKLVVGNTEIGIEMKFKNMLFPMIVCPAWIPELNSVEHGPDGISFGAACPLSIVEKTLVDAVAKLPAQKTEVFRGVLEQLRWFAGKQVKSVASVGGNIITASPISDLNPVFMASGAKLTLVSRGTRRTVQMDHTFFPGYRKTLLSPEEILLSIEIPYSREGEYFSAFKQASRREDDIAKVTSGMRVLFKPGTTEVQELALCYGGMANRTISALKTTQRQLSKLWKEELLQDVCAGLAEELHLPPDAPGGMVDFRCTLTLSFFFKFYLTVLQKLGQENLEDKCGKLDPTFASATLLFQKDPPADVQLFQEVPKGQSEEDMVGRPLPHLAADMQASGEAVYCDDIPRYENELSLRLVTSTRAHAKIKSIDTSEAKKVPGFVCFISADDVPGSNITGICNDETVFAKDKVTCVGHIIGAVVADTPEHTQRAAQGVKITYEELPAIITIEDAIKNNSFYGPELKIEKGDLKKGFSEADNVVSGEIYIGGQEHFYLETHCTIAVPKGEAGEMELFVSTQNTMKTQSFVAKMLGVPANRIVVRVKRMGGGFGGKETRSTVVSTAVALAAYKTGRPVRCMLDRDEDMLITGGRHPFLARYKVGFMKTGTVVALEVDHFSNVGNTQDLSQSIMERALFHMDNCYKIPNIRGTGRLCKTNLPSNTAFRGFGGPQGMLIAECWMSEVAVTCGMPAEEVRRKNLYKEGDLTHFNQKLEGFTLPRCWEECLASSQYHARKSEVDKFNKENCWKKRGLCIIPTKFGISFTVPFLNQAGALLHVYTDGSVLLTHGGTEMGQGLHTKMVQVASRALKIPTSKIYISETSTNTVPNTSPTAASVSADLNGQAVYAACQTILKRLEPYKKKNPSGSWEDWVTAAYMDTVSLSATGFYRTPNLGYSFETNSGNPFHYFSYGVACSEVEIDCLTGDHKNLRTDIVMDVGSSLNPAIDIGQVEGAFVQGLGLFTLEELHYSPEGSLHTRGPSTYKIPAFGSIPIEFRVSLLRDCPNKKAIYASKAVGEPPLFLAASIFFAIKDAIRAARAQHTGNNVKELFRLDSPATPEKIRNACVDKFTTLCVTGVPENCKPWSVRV
IC50 [1],IC50 [2],Structure (SMILES),Activity [3],Activity [4],Activity [5]
0.6 µM,> 500 µM,O=C(O)CCCOc1ccc(-c2cc(=O)c3c(O)cc(O)cc3o2)cc1,–,–,–
> 100 µM,90.4 µM,O=C(O)CCCCCCOc1cc(O)c2c(=O)cc(-c3ccc(O)cc3)oc2c1,–,–,–
–,35.9 µM,O=C(O)CCCOc1cc(O)cc2oc(-c3ccc(O)cc3)cc(=O)c12,–,–,–
> 100 µM,101 µM,O=C(O)CCCCCOc1cc(O)c2c(=O)cc(-c3ccc(O)cc3)oc2c1,–,–,–
–,222 µM,C[C@H]1O[C@H](O[C@H]2[C@H](O)[C@@H](O)[C@@H](O[C@H]3[C@H](O)[C@@H](O)C(O)O[C@@H]3CO)O[C@@H]2CO)[C@H](O)[C@@H](O)[C@@H]1N[C@H]1C=C(CO)[C@@H](O)[C@H](O)[C@H]1O (some centres undefined) [ACARBOSE],Active,–,–
0.22 µM,> 500 µM,O=C(O)CCCCOc1ccc(-c2cc(=O)c3c(O)cc(O)cc3o2)cc1,–,–,–
> 100 µM,44.5 µM,O=C(O)CCCOc1cc(O)c2c(=O)cc(-c3ccc(O)cc3)oc2c1,–,–,–
> 100 µM,33.7 µM,O=C(O)CCCCOc1cc(O)c2c(=O)cc(-c3ccc(O)cc3)oc2c1,–,–,–
> 100 µM,18.3 µM,O=C(O)CCCCCCCOc1cc(O)c2c(=O)cc(-c3ccc(O)cc3)oc2c1,inactive,inactive,–

# Second part, the molecule before the results:
Structure (SMILES),IC50 [1],IC50 [2],Activity [3],Activity [4],Activity [5]
O=C(O)CCCCCOc1ccc(-c2cc(=O)c3c(O)cc(O)cc3o2)cc1,0.32 µM,> 500 µM,–,–,–
O=C(O)CCCCCOc1cc(O)cc2oc(-c3ccc(O)cc3)cc(=O)c12,–,26.2 µM,Active,inactive,–
Oc1ncnc2[nH]ncc12,–,–,–,–,Active
O=C(O)COc1ccc(-c2cc(=O)c3c(O)cc(O)cc3o2)cc1,–,> 500 µM,–,–,–
O=C(O)COc1cc(O)cc2oc(-c3ccc(O)cc3)cc(=O)c12,–,113 µM,–,–,–
O=C(O)CCCCCCCOc1cc(O)cc2oc(-c3ccc(O)cc3)cc(=O)c12,–,> 500 µM,–,–,–
O=C(O)CCCCOc1cc(O)cc2oc(-c3ccc(O)cc3)cc(=O)c12,–,39 µM,inactive,inactive,–
O=c1cc(-c2ccc(O)cc2)oc2cc(O)cc(O)c12 [APIGENIN],3.2 µM,24.3 µM,inactive,–,inactive
O=C(O)CCCCCCOc1cc(O)cc2oc(-c3ccc(O)cc3)cc(=O)c12,–,51.4 µM,Active,inactive,–
O=C(O)CCCCCCCOc1ccc(-c2cc(=O)c3c(O)cc(O)cc3o2)cc1,0.25 µM,> 500 µM,–,–,–
O=C(O)CCCCCCOc1ccc(-c2cc(=O)c3c(O)cc(O)cc3o2)cc1,0.098 µM,> 500 µM,–,–,Active
O=C(O)COc1cc(O)c2c(=O)cc(-c3ccc(O)cc3)oc2c1,–,61.2 µM,–,–,–
